Test results: patent US6461997B1, “Triazole sulfones having herbicidal activity” (Monsanto Technology LLC, priority 1999, dated 2002)

Assays:
[1] = tested on: BRAPP (broadleaf signalgrass); test: Pre-emergence herbicidal activity, warm season; format: in vivo, Brachiaria platyphylla; settings: GR80 = lowest tested rate (300, 100, 30, 10 g/ha) with 80% or greater inhibition; approx. 14 days after treating; 30/21° C.
Summary of the method: (§1)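 Seeds sown in sterilised fertilised topsoil received surface-applied compound in 50:50 acetone/water, typically at 300, 100, 30 and 10 g/ha, then greenhouse-grown at 30/21° C (warm-season species) or 18/13° C (cool-season species). Percent inhibition versus untreated plants was scored at about 14 days, giving GR80; an asterisk marks activity short of 80% at the top rate.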

[2] = tested on: GALAP (catchweed bedstraw); test: Pre-emergence herbicidal activity, cool season; format: in vivo, Galium aparine; settings: lowest tested rate with 80% or greater inhibition; rates 300, 100, 30, 10 g/ha; about 14 days
Summary of the method: as §1

[3] = tested on: SORHA (johnsongrass (seedling)); test: Pre-plant incorporated (PPI) herbicidal activity, warm season; format: in vivo, Sorghum halepense; settings: for Percent inhibition SORHA: PPI application; for PPI activity GR80, SORHA: pre-plant incorporated, lowest tested rate with 80% or greater inhibition, about 14 days
Experimental: (§2) In another set of tests, the pre-plant incorporated (PPI) activity of compounds of this invention was evaluated on the same species as for the pre-emergence tests described above. In the PPI tests the following procedure, designed to simulate PPI application, was used.
(§3) A pre-prepared topsoil mixture (described above) was placed in a pot and compacted to a depth of 1.0 to 1.25 cm from the top of the pot. Seeds of each of several monocotyledonous and dicotyledonous annual plant species were placed on top of the soil. A sufficient quantity of soil to cover the seeds and level fill the pot was weighed into an open container. A known amount of the test compound was dissolved or suspended in an organic solvent and applied by spraying to this cover soil. The cover soil was thoroughly mixed to distribute the test compound throughout the cover soil, and was then applied as a cover layer over the seeds. Untreated soil was used as a cover layer for control pots. After treatment the plants were placed in a greenhouse where they received 0.64 cm of overhead irrigation. All subsequent watering consisted of a light overhead mist and/or subirrigation as needed for germination and growth. Tables 9 and 10 below relate to warm season plant species which were placed after pre-emergence treatment in a greenhouse with a 30/21° C. day/night temperature regime. Tables 11 and 12 below relates to cool season plant species placed after pre-emergence treatment in a greenhouse or growth chamber with an 18/13° C. day/night temperature regime. Only the compounds of Examples 1, 6, 8, 11, 13 and 15-20 were included in PPI tests.
(§4) Approximately 14 days after planting and treating, the plants were observed and herbicidal efficacy recorded as percent inhibition by comparison with untreated plants.

PANDI (fall panicum) = test: as above; format: in vivo, Panicum dichotomiflorum; settings: for Percent inhibition PANDI: PPI application; for PPI activity GR80, PANDI: pre-plant incorporated, lowest tested rate with 80% or greater inhibition, about 14 days
Experimental: as §2, §3, §4

SETVI (green foxtail) [4] = test: Pre-plant incorporated (PPI) herbicidal activity, cool season; format: in vivo, Setaria viridis; settings: for Percent inhibition SETVI: weed, PPI application; for PPI activity GR80, SETVI: pre-plant incorporated, lowest tested rate with 80% or greater inhibition, about 14 days
Experimental: as §2, §3, §4

BROTE (downy brome) = test: as above; format: in vivo, Bromus tectorum; settings: for Percent inhibition BROTE: weed, PPI application; for PPI activity GR80, BROTE: pre-plant incorporated, lowest tested rate with 80% or greater inhibition, about 14 days
Experimental: as §2, §3, §4

SETVI (green foxtail) [5] = test: Post-emergence herbicidal activity, cool season; format: in vivo, Setaria viridis; settings: abraded plants sprayed at 300, 100, 30 and 10 g/ha; about 14 days after treatment
Experimental: In another set of tests, the post-emergence activity of compounds of this invention was evaluated on the cool season species listed above. The following procedure was used.
A pre-prepared topsoil mixture (described above) was placed in a pot and compacted to a depth of 1.0 to 1.25 cm from the top of the pot. Seeds of each of several monocotyledonous and dicotyledonous annual plant species were placed on top of the soil. The seeds were covered with a mixture of 50% topsoil and 50% Rediearth™ in sufficient quantity to level-fill the pots. The pots were then placed on a greenhouse bench and subirrigated as needed.
When plants growing from the seeds had emerged and reached a suitable growth stage for post-emergence treatment, typically 9 to 14 days after planting, above-ground parts of the plants were subjected to a pre-treatment involving abrasion to create greater opportunity for foliar uptake of subsequently applied compounds. Abrasion was performed using garnet 200w particles applied with a Sears Craftsman hand-held sandblaster operated at approximately 850 kPa (50 psig) pressure.
A known amount of each test compound dissolved or suspended in an appropriate organic solvent was diluted with a 50:50 mix of acetone and water and applied to the plants by spraying with a standard spray nozzle in a spray volume of […] at a spray pressure of 511 kPa (30 psig). Only the compounds of Examples 1, 8-15 and 17-22 were included in post-emergence tests. Application rates for these compounds were 300, 100, 30 and 10 g/ha. Control plants were abraded but not sprayed.
After treatment the plants were placed in a greenhouse with an 18/13° C. day/night temperature regime and were subsequently watered as needed for growth. Approximately 14 days after treatment, the plants were observed and herbicidal efficacy recorded as percent inhibition by comparison with control plants. GR80 values were assigned for each compound as described above for the pre-emergence tests.

SMILES	Pre-emergence activity (GR80) BRAPP [1]	Pre-emergence activity GR80, GALAP [2]	Percent inhibition SORHA ([3]; 30 g/ha) [%]	Percent inhibition SORHA ([3]; 100 g/ha) [%]	Percent inhibition SORHA ([3]; 300 g/ha) [%]	Percent inhibition SORHA ([3]; 900 g/ha) [%]	Percent inhibition PANDI (PANDI (fall panicum); 30 g/ha) [%]	Percent inhibition PANDI (PANDI (fall panicum); 100 g/ha) [%]	Percent inhibition PANDI (PANDI (fall panicum); 300 g/ha) [%]	Percent inhibition PANDI (PANDI (fall panicum); 900 g/ha) [%]	Percent inhibition SETVI (SETVI (green foxtail) [4]; 30 g/ha) [%]	Percent inhibition SETVI (SETVI (green foxtail) [4]; 100 g/ha) [%]	Percent inhibition SETVI (SETVI (green foxtail) [4]; 300 g/ha) [%]	Percent inhibition SETVI (SETVI (green foxtail) [4]; 900 g/ha) [%]	Percent inhibition BROTE (BROTE (downy brome); 30 g/ha) [%]	Percent inhibition BROTE (BROTE (downy brome); 100 g/ha) [%]	Percent inhibition BROTE (BROTE (downy brome); 300 g/ha) [%]	Percent inhibition BROTE (BROTE (downy brome); 900 g/ha) [%]	PPI activity GR80, SORHA [3] [g/ha]	PPI activity GR80, SETVI (SETVI (green foxtail) [4]) [g/ha]	also measured
CCN(CC)C(=O)n1cnc(S(=O)(=O)C(F)(F)F)n1 [Example 2]	300 g/ha	100 g/ha	70	80	100	100	100	100	100	100	80	100	100	100	0	40	50	100			
CCN(CC)C(=O)n1cnc(S(=O)(=O)C(F)(F)Cl)n1 [Example 3]	100 g/ha	100 g/ha	99	100	100	100	80	100	100	100	100	100	100	100	0	30	90	95			
CCN(CC)C(=O)n1cnc(S(=O)(=O)C(F)(F)C(F)(F)Br)n1 [Example 4]	300 g/ha	100 g/ha	60	100	100	100	0	100	100	100	99	100	100	100	0	50	85	90			
CCN(CC)C(=O)n1cnc(S(=O)(=O)C(F)(F)C(=O)c2ccccc2)n1 [Example 6]	* (activity observed, at least at highest rate, but <80% inhibition)	100 g/ha																	100	300	PPI activity GR80, PANDI (PANDI (fall panicum)): 100 g/ha; PPI activity GR80, BROTE (BROTE (downy brome)): * (activity observed, at least at highest rate, but <80% inhibition)
CCN(CC)C(=O)n1cnc(S(=O)(=O)C(F)(F)SCC(=O)OC)n1 [Example 11]		[empty]	0	30	80	100	0	70	99	100	90	99	95	100	0	0	0	20	300	300	Percent inhibition SORHA ([3]; 10 g/ha): 0%; Percent inhibition PANDI (PANDI (fall panicum); 10 g/ha): 0%; Percent inhibition SETVI (SETVI (green foxtail) [4]; 10 g/ha): 80%; PPI activity GR80, BROTE (BROTE (downy brome)): [empty]; Percent inhibition BROTE (BROTE (downy brome); 10 g/ha): 0%; Post-emergence activity GR80, SETVI (SETVI (green foxtail) [5]): [empty]
CCN(CC)C(=O)n1cnc(S(=O)(=O)C(F)(F)C(F)(F)SC)n1 [Example 14]	300 g/ha	30 g/ha																			Post-emergence activity GR80, SETVI (SETVI (green foxtail) [5]): [empty]
CCN(CC)C(=O)n1cnc(S(=O)(=O)C(F)(F)C(F)F)n1 [Example 16]	300 g/ha	100 g/ha	70	100	100	100	100	100	100	100	80	95	100	100	0	35	40	90	10	10	Percent inhibition SORHA ([3]; 10 g/ha): 0%; Percent inhibition PANDI (PANDI (fall panicum); 10 g/ha): 0%; PPI activity GR80, PANDI (PANDI (fall panicum)): 10 g/ha; Percent inhibition SETVI (SETVI (green foxtail) [4]; 10 g/ha): 100%; PPI activity GR80, BROTE (BROTE (downy brome)): 300 g/ha; Percent inhibition BROTE (BROTE (downy brome); 10 g/ha): 0%
